Results published in the NIST ThermoML archive (doi:10.1016/j.tca.2016.06.022).
Numbers after ± are expanded uncertainties.

Assay: xn = mol fraction of the nth substance listed
Conditions: 101 kPa, Liquid, Vibrating tube method

## NCCN [ethane-1,2-diamine] + O
308.15 K, x1 = 0.8505
  mass density: 898.88 ± 0.51 kg/m3
308.15 K, x1 = 0.898
  mass density: 893.62 ± 0.51 kg/m3
308.15 K, x1 = 0.9282
  mass density: 890.26 ± 0.51 kg/m3
308.15 K, x1 = 0.9584
  mass density: 886.94 ± 0.51 kg/m3
308.15 K, x1 = 0.9678
  mass density: 885.94 ± 0.51 kg/m3
308.15 K, x1 = 0.9793
  mass density: 884.7 ± 0.51 kg/m3
308.15 K, x1 = 1
  mass density: 882.49 ± 0.51 kg/m3
323.15 K, x1 = 0.002
  mass density: 987.81 ± 0.5 kg/m3
323.15 K, x1 = 0.0033
  mass density: 987.61 ± 0.5 kg/m3
323.15 K, x1 = 0.0047
  mass density: 987.39 ± 0.5 kg/m3
323.15 K, x1 = 0.0072
  mass density: 987 ± 0.5 kg/m3
323.15 K, x1 = 0.009
  mass density: 986.75 ± 0.5 kg/m3
323.15 K, x1 = 0.0123
  mass density: 986.24 ± 0.5 kg/m3
323.15 K, x1 = 0.0222
  mass density: 984.89 ± 0.5 kg/m3
323.15 K, x1 = 0.0436
  mass density: 982.66 ± 0.5 kg/m3
323.15 K, x1 = 0.0609
  mass density: 981.44 ± 0.5 kg/m3
323.15 K, x1 = 0.0827
  mass density: 980.39 ± 0.5 kg/m3
323.15 K, x1 = 0.106
  mass density: 979.64 ± 0.5 kg/m3
323.15 K, x1 = 0.1481
  mass density: 978.7 ± 0.5 kg/m3
323.15 K, x1 = 0.2063
  mass density: 976.41 ± 0.5 kg/m3
323.15 K, x1 = 0.2513
  mass density: 973.14 ± 0.51 kg/m3
323.15 K, x1 = 0.3148
  mass density: 964.84 ± 0.51 kg/m3
323.15 K, x1 = 0.341
  mass density: 961.96 ± 0.51 kg/m3
323.15 K, x1 = 0.4038
  mass density: 952.12 ± 0.51 kg/m3
323.15 K, x1 = 0.4489
  mass density: 944.49 ± 0.51 kg/m3
323.15 K, x1 = 0.4928
  mass density: 936.96 ± 0.51 kg/m3
323.15 K, x1 = 0.5468
  mass density: 928.02 ± 0.51 kg/m3
323.15 K, x1 = 0.5907
  mass density: 920.79 ± 0.51 kg/m3
323.15 K, x1 = 0.6361
  mass density: 913.79 ± 0.51 kg/m3
323.15 K, x1 = 0.6843
  mass density: 906.8 ± 0.51 kg/m3
323.15 K, x1 = 0.7386
  mass density: 899.31 ± 0.51 kg/m3
323.15 K, x1 = 0.7954
  mass density: 891.79 ± 0.51 kg/m3
323.15 K, x1 = 0.81
  mass density: 889.66 ± 0.51 kg/m3
323.15 K, x1 = 0.8505
  mass density: 884.84 ± 0.51 kg/m3
323.15 K, x1 = 0.898
  mass density: 879.53 ± 0.51 kg/m3
323.15 K, x1 = 0.9282
  mass density: 876.1 ± 0.51 kg/m3
323.15 K, x1 = 0.9584
  mass density: 872.76 ± 0.51 kg/m3
323.15 K, x1 = 0.9678
  mass density: 871.75 ± 0.51 kg/m3
323.15 K, x1 = 0.9793
  mass density: 870.49 ± 0.52 kg/m3
323.15 K, x1 = 1
  mass density: 868.23 ± 0.51 kg/m3
333.15 K, x1 = 0.002
  mass density: 982.96 ± 0.5 kg/m3
333.15 K, x1 = 0.0033
  mass density: 982.75 ± 0.5 kg/m3
333.15 K, x1 = 0.0047
  mass density: 982.53 ± 0.5 kg/m3
333.15 K, x1 = 0.0072
  mass density: 982.12 ± 0.5 kg/m3
333.15 K, x1 = 0.009
  mass density: 981.85 ± 0.5 kg/m3
333.15 K, x1 = 0.0123
  mass density: 981.3 ± 0.5 kg/m3
333.15 K, x1 = 0.0222
  mass density: 979.82 ± 0.5 kg/m3
333.15 K, x1 = 0.0436
  mass density: 977.37 ± 0.5 kg/m3
333.15 K, x1 = 0.0609
  mass density: 975.89 ± 0.5 kg/m3
333.15 K, x1 = 0.0827
  mass density: 974.47 ± 0.5 kg/m3
333.15 K, x1 = 0.106
  mass density: 973.29 ± 0.5 kg/m3
333.15 K, x1 = 0.1481
  mass density: 971.62 ± 0.5 kg/m3
333.15 K, x1 = 0.2063
  mass density: 968.4 ± 0.51 kg/m3
333.15 K, x1 = 0.2513
  mass density: 964.58 ± 0.51 kg/m3
333.15 K, x1 = 0.3148
  mass density: 956.48 ± 0.51 kg/m3
333.15 K, x1 = 0.341
  mass density: 952.88 ± 0.51 kg/m3
333.15 K, x1 = 0.4038
  mass density: 942.8 ± 0.51 kg/m3
333.15 K, x1 = 0.4489
  mass density: 935.14 ± 0.51 kg/m3
333.15 K, x1 = 0.4928
  mass density: 927.53 ± 0.51 kg/m3
333.15 K, x1 = 0.5468
  mass density: 918.58 ± 0.51 kg/m3
333.15 K, x1 = 0.5907
  mass density: 911.42 ± 0.51 kg/m3
333.15 K, x1 = 0.6361
  mass density: 904.37 ± 0.51 kg/m3
333.15 K, x1 = 0.6843
  mass density: 897.38 ± 0.51 kg/m3
333.15 K, x1 = 0.7386
  mass density: 889.84 ± 0.51 kg/m3
333.15 K, x1 = 0.7954
  mass density: 882.31 ± 0.51 kg/m3
333.15 K, x1 = 0.81
  mass density: 880.16 ± 0.51 kg/m3
333.15 K, x1 = 0.8505
  mass density: 875.33 ± 0.51 kg/m3
333.15 K, x1 = 0.898
  mass density: 870.05 ± 0.51 kg/m3
333.15 K, x1 = 0.9282
  mass density: 866.59 ± 0.51 kg/m3
333.15 K, x1 = 0.9584
  mass density: 863.2 ± 0.52 kg/m3
333.15 K, x1 = 0.9678
  mass density: 862.17 ± 0.52 kg/m3
333.15 K, x1 = 0.9793
  mass density: 860.9 ± 0.52 kg/m3
333.15 K, x1 = 1
  mass density: 858.6 ± 0.52 kg/m3
